PMC3256212, “Mechanism and Function of Drosophila capa GPCR: A Desiccation Stress-Responsive Receptor with Functional Homology to Human NeuromedinU Receptor” (PLoS ONE, 2012)
Peptide text beside a SMILES is read from it.

Tested on: tubule principal cells
Parameters: species or system Drosophila melanogaster
Experimental: All lines were maintained on a standard Drosophila diet at 22°C, 55% humidity on a 12∶12 h light∶dark photoperiod. Wild-type flies were obtained from a Canton-S (CS) stock. In order to drive cell- and tissue-specific gene expression of gene(s) of choice in vivo, the GAL4/UAS system was used, in which cell- or tissue-specific GAL4 ‘drivers’ enable binary expression of genes cloned downstream of the GAL4-binding Upstream Activating Sequence. Thus, for intact tubules, principal cell-specific expression can be driven using either c42-GAL4 [16] or Urate-Oxidase-GAL4 [17] drivers in an otherwise normal fly. […] Validation of the capaR RNAi line was confirmed by quantitative Q-RT-PCR using the primers 5′-[…]-3′ and 5′-[…]-3′ (Fig. S1). […]
Drosophila S2 cells, cultured under standard conditions were transiently transfected with the apoaequorin ORF [21] and a receptor ORF construct, and expression induced using CuSO4. […] Bioluminescence recordings were carried out using a Mithras LB940 automated 96-well plate reader (Berthold Technologies) and MikroWin software. […] At the end of each recording samples were disrupted by the addition of 100 µl lysis solution, and the [Ca^2+] concentrations calculated as previously described. […]

## CC(C)C[C@H](NC(=O)[C@H](Cc1ccccc1)NC(=O)[C@H](Cc1ccc(O)cc1)NC(=O)CNC(=O)[C@H](CCCNC(=N)N)NC(=O)[C@H](CO)NC(=O)[C@H](CCC(N)=O)NC(=O)[C@H](CO)NC(=O)[C@H](C)NC(=O)[C@H](Cc1ccccc1)NC(=O)[C@@H]1CCCN1C(=O)[C@H](CO)NC(=O)[C@H](CCC(N)=O)NC(=O)[C@H](Cc1ccccc1)NC(=O)[C@H](CCC(=O)O)NC(=O)[C@H](CCC(=O)O)NC(=O)[C@H](CC(=O)O)NC(=O)[C@@H](NC(=O)[C@H](CCCNC(=N)N)NC(=O)[C@@H](N)Cc1ccccc1)C(C)C)C(=O)N[C@@H](Cc1ccccc1)C(=O)N[C@@H](CCCNC(=N)N)C(=O)N1CCC[C@H]1C(=O)N[C@@H](CCCNC(=N)N)C(=O)N[C@@H](CC(N)=O)C(N)=O [NMU-25, reference compound] (H-FRVDEEFQSPFASQSRGYFLFRPRN-NH2)
  EC50: 27.1 nM
